The test system of this test is NK1−/− and wild-type mice. Particulars: wild-type versus NK1−/− mice; FIG. 13. As for the experimental part:
The effect of betaxolol and desipramine was tested using similar protocols to those used for testing the effect of d-amphetamine.

With `CC(C)NCC(O)COc1ccc(CCOCC2CC2)cc1` (stereo not shown) [betaxolol], the locomotor activity entry is reported as “not all drugs that increase locomotor activity in wild-type mice reduce it in NK1^−/− mice”.
